# Experimental data reported in US20050009840A1 (SUGEN, INC., priority 2003, published 2005).
# Target: T1, Met kinase domain (GST fusion protein) (Homo sapiens, UniProt P08581)
# T1 construct: Purified GST fusion protein containing the Met kinase domain
# Experiment: Met transphosphorylation assay (ELISA, poly(glu-tyr) substrate);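 further: Cell-free ELISA with plate-bound poly(Glu:Tyr 4:1) phosphorylated by GST-fused Met kinase domain plus ATP and Mn2+, phosphotyrosine detected by anti-phosphotyrosine antibody with HRP and ABTS read-out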
# Type: biochemical
# Settings: plain numbers in column Met IC50 (μM) of Table 2; read-out: Met IC50
# T1 sequence (P08581 1078-1345 limits assumed): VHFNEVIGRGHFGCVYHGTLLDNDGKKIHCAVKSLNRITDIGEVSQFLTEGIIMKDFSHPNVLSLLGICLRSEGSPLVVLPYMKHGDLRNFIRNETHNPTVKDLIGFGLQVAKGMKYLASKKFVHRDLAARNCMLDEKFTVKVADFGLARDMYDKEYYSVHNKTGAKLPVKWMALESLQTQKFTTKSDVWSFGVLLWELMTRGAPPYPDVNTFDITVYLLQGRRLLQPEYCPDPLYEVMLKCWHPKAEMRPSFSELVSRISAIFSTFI
row,SMILES,IC50 [µM]
1,"CC(Oc1cc(-c2ccc(NC(=O)NC3CCN(C)CC3)cc2)cnc1N)c1c(Cl)ccc(F)c1Cl (stereo not drawn) [Example I-377, 1-(4-{6-Amino-5-[1-(2,6-dichloro-3-fluoro-phenyl)-ethoxy]-pyridin-3-yl}-phenyl)-3-(1-methyl-pipendin-4-yl)-urea]",0.04
2,"CC(Oc1cc(-c2ccc(NC(=O)NC3CCN(C)CC3)cc2)cnc1N)c1c(F)ccc(F)c1Cl (stereo not drawn) [Example I-378, 1-(4-{6-Amino-5-[1-(2-chloro-3,6-difluoro-phenyl)-ethoxy]-pyridin-3-yl}-phenyl)-3-(1-methyl-pipendin-4-yl)-urea]",0.038
3,"CC(Oc1cc(-c2ccc(NC(=O)N3CC[C@@H](N)C3)cc2)cnc1N)c1c(F)ccc(F)c1Cl (stereo partly drawn) [Example I-379, (R)-3-Amino-pyrrolidine-1-carboxylic acid (4-{6-amino-5-[1-(2-chloro-3,6-difluoro-phenyl)-ethoxy]-pyridin-3-yl}-phenyl)-amide]",0.069
4,"CC(Oc1cc(-c2ccc(NC(=O)N3CC[C@H](N)C3)cc2)cnc1N)c1c(F)ccc(F)c1Cl (stereo partly drawn) [Example I-380, (S)-3-Amino-pyrrolidine-1-carboxylic acid (4-{6-amino-5-[1-(2-chloro-3,6-difluoro-phenyl)-ethoxy}-pyridin-3-yl}-phenyl)-amide]",0.075
5,"CC(Oc1cc(-c2ccc(NC(=O)NCCO)cc2)cnc1N)c1c(F)ccc(F)c1Cl (stereo not drawn) [Example I-381, 1-(4-{6-Amino-5-[1-(2-chloro-3,6-difluoro-phenyl)-ethoxy]-pyridin-3-yl}-phenyl)-3-(2-hydroxy-ethyl)-urea]",0.11
6,"CC(Oc1cc(-c2ccc(NC(=O)N3CCN(C)CC3)cc2)cnc1N)c1c(F)ccc(F)c1Cl (stereo not drawn) [Example I-382, 4-Methyl-piperazine-1-carboxylic acid (4-{6-amino-5-[1-(2-chloro-3,6-difluoro-phenyl)-ethoxy]-pyridin-3-yl}-phenyl)-amine]",0.082
7,"CC(Oc1cc(-c2ccc(NC(=O)NCCN3CCCC3)cc2)cnc1N)c1c(F)ccc(F)c1Cl (stereo not drawn) [Example I-383, 1-(4-{6-Amino-5-[1-(2-chloro-3,6-difluoro-phenyl)-ethoxy]-pyridin-3-yl}-phenyl)-3-(2-pyrrolidin-1-yl-ethyl)-urea]",0.11
8,"CC(Oc1cc(-c2ccc(NC(=O)NCCN3CCOCC3)cc2)cnc1N)c1c(F)ccc(F)c1Cl (stereo not drawn) [Example I-384, 1-(4-{6-Amino-5-[1-(2-chloro-3,6-difluoro-phenyl)-ethoxy]-pyridin-3-yl}-phenyl)-3-(2-morpholin-4-yl-ethyl)-urea]",0.13

# More lines, now with the values ahead:
row,IC50 [µM],SMILES
1,0.052,"CC(Oc1cc(-c2ccc(NC(=O)N3CC[C@H](N)C3)cc2)cnc1N)c1c(Cl)ccc(F)c1Cl (stereo partly drawn) [Example I-376, (S)-3-Amino-pyrrolidine-1-carboxylic acid (4-{6-amino-5-[1-(2,6-dichloro-3-fluoro-phenyl)-ethoxy]-pyridin-3-yl}-phenyl)-amide]"
2,0.13,"CC(Oc1cc(-c2ccc(NC(=O)N3CCC[C@@H]3CN3CCCC3)cc2)cnc1N)c1c(F)ccc(F)c1Cl (stereo partly drawn) [Example I-385, (R)-2-Pyrrolidin-1-ylmethyl-pyrrolidine-1-carboxylic acid (4-{6-amino-5-[1-(2-chloro-3,6-difluoro-phenyl)-ethoxy]-pyridin-3-yl}-phenyl)-amide]"
3,0.16,"CC(Oc1cc(-c2cccc(C(=O)N3C[C@@H](C)N[C@@H](C)C3)c2)cnc1N)c1c(Cl)cccc1Cl (stereo partly drawn) [Example I-387, (3-{6-Aminno-5-[1-(2,6-dichloro-phenyl)-ethoxy]-pyridin-3-yl}-phenyl)-((3R,5S)-3,5-dimethyl-piperazin-1-yl)-methanone]"
4,0.1,"CC(Oc1cc(-c2cccc(C(=O)N3CCC(N4CCCC4)CC3)c2)cnc1N)c1c(Cl)cccc1Cl (stereo not drawn) [Example I-388, (3-{6-Amino-5-[1-(2,6-dichloro-phenyl)-ethoxy]-pyridin-3-yl}-phenyl)-(4-pyrrolidin-1-yl-piperidin-1-yl)-methanone]"
